What was measured:
[1] = refractive index (Na D-line) (dimensionless); xn = mol fraction of the nth substance listed; conditions: 101 kPa, Liquid, Standard Abbe refractometry
[2] = relative permittivity at zero frequency (dimensionless); xn = mol fraction of the nth substance listed; conditions: 101 kPa, Liquid, Parallel plate capacitor

CCC(O)CO (configuration not stated) [1,2-butanediol] + C1COCCO1
Conditions	refractive index, 298.2 K	refractive index, 308.2 K	refractive index, 318.2 K	relative permittivity at zero frequency, 298.2 K	relative permittivity at zero frequency, 308.2 K	relative permittivity at zero frequency, 318.2 K
[1], x1 = 0.099	1.4212	1.416	1.4103	–	–	–
[1], x1 = 0.148	1.4221	1.4166	1.4115	–	–	–
[1], x1 = 0.197	1.4227	1.4173	1.4124	–	–	–
[1], x1 = 0.246	1.4236	1.4182	1.4133	–	–	–
[1], x1 = 0.299	1.4242	1.4189	1.4142	–	–	–
[1], x1 = 0.349	1.4253	1.42	1.415	–	–	–
[1], x1 = 0.401	1.4259	1.4208	1.4162	–	–	–
[1], x1 = 0.448	1.4268	1.4218	1.4168	–	–	–
[1], x1 = 0.51	1.428	1.4231	1.4177	–	–	–
[1], x1 = 0.55	1.4287	1.4237	1.4191	–	–	–
[1], x1 = 0.611	1.4297	1.4248	1.4203	–	–	–
[1], x1 = 0.685	1.4311	1.4263	1.4218	–	–	–
[1], x1 = 0.788	1.433	1.4285	1.4236	–	–	–
[1], x1 = 0.855	1.4341	1.4295	1.4253	–	–	–
[1], x1 = 0.907	1.4353	1.4307	1.4265	–	–	–
[1], x1 = 0.96	1.436	1.432	1.4278	–	–	–
[1], x1 = 1	1.4372	1.433	1.4288	–	–	–
[2], x1 = 0.099	–	–	–	3.127	3.015	2.92
[2], x1 = 0.148	–	–	–	3.659	3.496	3.359
[2], x1 = 0.197	–	–	–	4.254	4.064	3.875
[2], x1 = 0.246	–	–	–	4.882	4.632	4.406
[2], x1 = 0.299	–	–	–	5.685	5.407	5.046
[2], x1 = 0.349	–	–	–	6.472	6.079	5.696
[2], x1 = 0.401	–	–	–	7.376	6.854	6.419
[2], x1 = 0.448	–	–	–	8.243	7.732	7.193
[2], x1 = 0.51	–	–	–	9.466	8.817	8.122
[2], x1 = 0.55	–	–	–	10.263	9.592	8.783
[2], x1 = 0.611	–	–	–	11.646	10.84	9.908
[2], x1 = 0.685	–	–	–	13.401	12.41	11.301
[2], x1 = 0.788	–	–	–	16.007	14.739	13.469
[2], x1 = 0.855	–	–	–	17.761	16.335	15.027
[2], x1 = 0.907	–	–	–	19.272	17.748	16.307
[2], x1 = 0.96	–	–	–	20.867	19.214	17.628
[2], x1 = 1	–	–	–	22.143	20.365	18.661

CCCCC(CC)CO (configuration not stated) [2-ethyl-1-hexanol] + CCC(O)CO
Conditions	refractive index, 298.2 K	refractive index, 308.2 K	refractive index, 318.2 K	relative permittivity at zero frequency, 298.2 K	relative permittivity at zero frequency, 308.2 K	relative permittivity at zero frequency, 318.2 K
[1], x2 = 0	1.4293	1.4252	1.4213	–	–	–
[1], x2 = 0.111	1.4295	1.4254	1.4215	–	–	–
[1], x2 = 0.199	1.4295	1.4257	1.4219	–	–	–
[1], x2 = 0.291	1.4299	1.4259	1.4222	–	–	–
[1], x2 = 0.345	1.4301	1.4261	1.4225	–	–	–
[1], x2 = 0.399	1.4303	1.4265	1.4228	–	–	–
[1], x2 = 0.448	1.4307	1.4269	1.423	–	–	–
[1], x2 = 0.501	1.431	1.4272	1.4234	–	–	–
[1], x2 = 0.563	1.4313	1.4275	1.4237	–	–	–
[1], x2 = 0.625	1.432	1.4281	1.4241	–	–	–
[1], x2 = 0.667	1.4323	1.4284	1.4245	–	–	–
[1], x2 = 0.702	1.4327	1.4289	1.4249	–	–	–
[1], x2 = 0.75	1.4335	1.4295	1.4253	–	–	–
[1], x2 = 0.814	1.4342	1.4303	1.4259	–	–	–
[1], x2 = 0.897	1.4354	1.4314	1.427	–	–	–
[2], x2 = 0	–	–	–	7.353	6.362	5.52
[2], x2 = 0.111	–	–	–	7.683	6.922	6.232
[2], x2 = 0.199	–	–	–	8.152	7.52	6.851
[2], x2 = 0.291	–	–	–	8.91	8.32	7.636
[2], x2 = 0.345	–	–	–	9.464	8.8	8.14
[2], x2 = 0.399	–	–	–	10.065	9.44	8.701
[2], x2 = 0.448	–	–	–	10.678	9.995	9.312
[2], x2 = 0.501	–	–	–	11.404	10.69	9.954
[2], x2 = 0.563	–	–	–	12.382	11.556	10.873
[2], x2 = 0.625	–	–	–	13.435	12.625	11.819
[2], x2 = 0.667	–	–	–	14.198	13.357	12.559
[2], x2 = 0.702	–	–	–	14.955	14.023	13.21
[2], x2 = 0.75	–	–	–	15.885	15.005	14.022
[2], x2 = 0.814	–	–	–	17.454	16.338	15.347
[2], x2 = 0.897	–	–	–	19.447	18.115	16.989

From the NIST ThermoML archive (doi:10.1016/j.jct.2011.07.021)
